Reference: patent publication US11702404B2, “GLP-1R modulating compounds” (priority 2019, dated 2023)

Molecular target: GLP-1R (Homo sapiens, UniProt P43220)
Test: GLP-1R activation: cAMP increase in CHO cells stably expressing GLP-1R
Format: cell-based
Details: cAMP increase, CHO cells stably expressing GLP-1R, 10 point dose response, 30 minutes incubation; read-out: EC50

Sequence of GLP-1R (P43220 24-463): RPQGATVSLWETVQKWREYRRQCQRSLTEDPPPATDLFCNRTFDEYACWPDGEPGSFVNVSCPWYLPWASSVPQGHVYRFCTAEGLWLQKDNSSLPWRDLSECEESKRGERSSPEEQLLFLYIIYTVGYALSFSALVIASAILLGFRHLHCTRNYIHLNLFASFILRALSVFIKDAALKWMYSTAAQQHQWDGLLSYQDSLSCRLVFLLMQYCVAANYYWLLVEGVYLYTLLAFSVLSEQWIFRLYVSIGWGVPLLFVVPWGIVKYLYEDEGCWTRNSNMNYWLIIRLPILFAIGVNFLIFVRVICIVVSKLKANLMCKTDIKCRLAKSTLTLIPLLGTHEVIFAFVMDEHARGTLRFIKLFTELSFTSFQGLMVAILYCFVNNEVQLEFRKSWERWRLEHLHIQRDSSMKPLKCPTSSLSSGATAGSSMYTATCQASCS

| EC50 [nM] | SMILES |
| --- | --- |
| 0.04 | N#Cc1ccc(COc2ccc(F)c(-c3cc(F)c(Cc4nc5c(F)cc(C(=O)O)cc5n4C[C@@H]4CCO4)cc3F)n2)c(F)c1 [Example 792] |
| 0.17 | N#Cc1ccc(COc2ccc(F)c(-c3cc(F)c(Cc4nc5ccc(C(=O)O)cc5n4C[C@@H]4CCO4)cc3F)n2)c(F)c1 [Example 793] |
| 0.97 | N#Cc1ccc(COc2ccc(F)c(-c3ccc(Cc4nc5ccc(C(=O)O)cc5n4C[C@@H]4CCO4)cc3)n2)c(F)c1 [Example 794] |
| 0.65 | N#Cc1ccc(COc2nc(-c3ccc(Cc4nc5ccc(C(=O)O)cc5n4C[C@@H]4CCO4)cc3)ccc2F)c(F)c1 [Example 795] |
| 0.03 | N#Cc1cc(F)c(COc2cccc(-c3cc(F)c(Cc4nc5c(F)cc(C(=O)O)cc5n4C[C@@H]4CCO4)cc3F)n2)cc1F [Example 796] |
| 0.27 | N#Cc1ccc(COc2ccc(F)c(-c3ccc(Cc4nc5ccc(C(=O)O)cc5n4C[C@@H]4CCO4)c(F)c3)n2)c(F)c1 [Example 797] |
| 0.12 | N#Cc1cc(F)c(COc2cccc(-c3cc(F)c(Cc4nc5ccc(C(=O)O)cc5n4C[C@@H]4CCO4)cc3F)n2)cc1F [Example 798] |
| 135 | COCCn1c(Cc2cc(F)c(-c3cccc(OCc4ccc(C#N)cc4)n3)cc2F)nc2c(F)cc(C(=O)O)cc21 [Example 799] |
| 0.1 | O=C(O)c1ccc2nc(Cc3cc(F)c(-c4cccc(OCc5ccc(C(F)F)cc5F)n4)cc3F)n(C[C@@H]3CCO3)c2c1 [Example 800] |
| 0.12 | O=C(O)c1ccc2nc(Cc3cc(F)c(-c4ccnc(OCc5ccc(C(F)F)cc5F)n4)cc3F)n(C[C@@H]3CCO3)c2c1 [Example 801] |
| 3.64 | COCCn1c(Cc2cc(F)c(-c3cccc(OCc4ccc(Cl)c(F)c4F)n3)cc2F)nc2ccc(C(=O)O)cc21 [Example 802] |
| 5.95 | COCCn1c(Cc2cc(F)c(-c3cccc(OCc4ccc(C)cn4)n3)cc2F)nc2ccc(C(=O)O)cc21 [Example 803] |
| 43.6 | COCCn1c(Cc2cc(F)c(-c3cccc(OCc4cc(C#N)cs4)n3)cc2F)nc2ccc(C(=O)O)cc21 [Example 804] |
| 7.12 | COCCn1c(Cc2cc(F)c(-c3cccc(OCc4ccc(C#N)s4)n3)cc2F)nc2ccc(C(=O)O)cc21 [Example 805] |
| 0.54 | O=C(O)c1ccc2nc(Cc3ccc(-c4cccc(OCc5ccc(Cl)nc5)n4)c(F)c3)n(C[C@@H]3CCO3)c2c1 [Example 806] |
| 0.18 | N#Cc1ccc(COc2cccc(-c3cc(F)c(Cc4nc5ccc(C(=O)O)cc5n4C[C@@H]4CCO4)cc3F)n2)cn1 [Example 807] |
| 0.05 | O=C(O)c1ccc2nc(Cc3cc(F)c(-c4cccc(OCc5ccc(Cl)cc5)n4)cc3F)n(C[C@@H]3CCO3)c2c1 [Example 808] |
| 1.05 | COCCn1c(Cc2cc(F)c(-c3cccc(OCc4ccc(C(F)F)cc4)n3)cc2F)nc2ccc(C(=O)O)cc21 [Example 809] |
| 0.33 | COCCn1c(Cc2cc(F)c(-c3cccc(OCc4ccc(C)cc4F)n3)cc2F)nc2ccc(C(=O)O)cc21 [Example 810] |
| 3.57 | COCCn1c(Cc2cc(F)c(-c3cccc(OCc4ccc(C)nc4)n3)cc2F)nc2ccc(C(=O)O)cc21 [Example 811] |
| 24.9 | COCCn1c(Cc2cc(F)c(-c3cccc(OCc4ccc(F)nc4)n3)cc2F)nc2ccc(C(=O)O)cc21 [Example 812] |
| 2.98 | COCCn1c(Cc2cc(F)c(-c3cccc(OCc4ccc(Cl)nc4)n3)cc2F)nc2ccc(C(=O)O)cc21 [Example 813] |
| 2.14 | COCCn1c(Cc2cc(F)c(-c3cccc(OCc4ccc(C)cc4)n3)cc2F)nc2ccc(C(=O)O)cc21 [Example 814] |
| 2.49 | COCCn1c(Cc2cc(F)c(-c3cccc(OCc4ccc(F)cc4F)n3)cc2F)nc2ccc(C(=O)O)cc21 [Example 815] |

Tested on: not listed separately
Test: Microsomal stability, human liver microsomes (predicted hepatic clearance)
Details: predicted from in vitro microsomal stability data

| Predicted Hepatic Clearance (Pred. Cl.) [mL/min/kg] | SMILES |
| --- | --- |
| 6.17 | N#Cc1ccc(COc2ccc(F)c(-c3cc(F)c(Cc4nc5c(F)cc(C(=O)O)cc5n4C[C@@H]4CCO4)cc3F)n2)c(F)c1 [Example 792] |
| 5.67 | N#Cc1ccc(COc2ccc(F)c(-c3cc(F)c(Cc4nc5ccc(C(=O)O)cc5n4C[C@@H]4CCO4)cc3F)n2)c(F)c1 [Example 793] |
| 6.17 | N#Cc1ccc(COc2ccc(F)c(-c3ccc(Cc4nc5ccc(C(=O)O)cc5n4C[C@@H]4CCO4)cc3)n2)c(F)c1 [Example 794] |
| 1.83 | N#Cc1ccc(COc2nc(-c3ccc(Cc4nc5ccc(C(=O)O)cc5n4C[C@@H]4CCO4)cc3)ccc2F)c(F)c1 [Example 795] |
| 1.83 | N#Cc1cc(F)c(COc2cccc(-c3cc(F)c(Cc4nc5c(F)cc(C(=O)O)cc5n4C[C@@H]4CCO4)cc3F)n2)cc1F [Example 796] |
| 7.17 | N#Cc1ccc(COc2ccc(F)c(-c3ccc(Cc4nc5ccc(C(=O)O)cc5n4C[C@@H]4CCO4)c(F)c3)n2)c(F)c1 [Example 797] |
| 5.33 | N#Cc1cc(F)c(COc2cccc(-c3cc(F)c(Cc4nc5ccc(C(=O)O)cc5n4C[C@@H]4CCO4)cc3F)n2)cc1F [Example 798] |
| 2.67 | COCCn1c(Cc2cc(F)c(-c3cccc(OCc4ccc(C#N)cc4)n3)cc2F)nc2c(F)cc(C(=O)O)cc21 [Example 799] |
| 1.83 | O=C(O)c1ccc2nc(Cc3cc(F)c(-c4cccc(OCc5ccc(C(F)F)cc5F)n4)cc3F)n(C[C@@H]3CCO3)c2c1 [Example 800] |
| 3.17 | O=C(O)c1ccc2nc(Cc3cc(F)c(-c4ccnc(OCc5ccc(C(F)F)cc5F)n4)cc3F)n(C[C@@H]3CCO3)c2c1 [Example 801] |
| 2.33 | COCCn1c(Cc2cc(F)c(-c3cccc(OCc4ccc(Cl)c(F)c4F)n3)cc2F)nc2ccc(C(=O)O)cc21 [Example 802] |
| 13.3 | COCCn1c(Cc2cc(F)c(-c3cccc(OCc4ccc(C)cn4)n3)cc2F)nc2ccc(C(=O)O)cc21 [Example 803] |
| 11.5 | COCCn1c(Cc2cc(F)c(-c3cccc(OCc4cc(C#N)cs4)n3)cc2F)nc2ccc(C(=O)O)cc21 [Example 804] |
| 12 | COCCn1c(Cc2cc(F)c(-c3cccc(OCc4ccc(C#N)s4)n3)cc2F)nc2ccc(C(=O)O)cc21 [Example 805] |
| 7.17 | O=C(O)c1ccc2nc(Cc3ccc(-c4cccc(OCc5ccc(Cl)nc5)n4)c(F)c3)n(C[C@@H]3CCO3)c2c1 [Example 806] |
| 3.33 | N#Cc1ccc(COc2cccc(-c3cc(F)c(Cc4nc5ccc(C(=O)O)cc5n4C[C@@H]4CCO4)cc3F)n2)cn1 [Example 807] |
| 3.5 | O=C(O)c1ccc2nc(Cc3cc(F)c(-c4cccc(OCc5ccc(Cl)cc5)n4)cc3F)n(C[C@@H]3CCO3)c2c1 [Example 808] |
| 2.83 | COCCn1c(Cc2cc(F)c(-c3cccc(OCc4ccc(C(F)F)cc4)n3)cc2F)nc2ccc(C(=O)O)cc21 [Example 809] |
| 6.83 | COCCn1c(Cc2cc(F)c(-c3cccc(OCc4ccc(C)cc4F)n3)cc2F)nc2ccc(C(=O)O)cc21 [Example 810] |
| 10 | COCCn1c(Cc2cc(F)c(-c3cccc(OCc4ccc(C)nc4)n3)cc2F)nc2ccc(C(=O)O)cc21 [Example 811] |
| 1.83 | COCCn1c(Cc2cc(F)c(-c3cccc(OCc4ccc(F)nc4)n3)cc2F)nc2ccc(C(=O)O)cc21 [Example 812] |
| 1.83 | COCCn1c(Cc2cc(F)c(-c3cccc(OCc4ccc(Cl)nc4)n3)cc2F)nc2ccc(C(=O)O)cc21 [Example 813] |
| 6.17 | COCCn1c(Cc2cc(F)c(-c3cccc(OCc4ccc(C)cc4)n3)cc2F)nc2ccc(C(=O)O)cc21 [Example 814] |
| 1.83 | COCCn1c(Cc2cc(F)c(-c3cccc(OCc4ccc(F)cc4F)n3)cc2F)nc2ccc(C(=O)O)cc21 [Example 815] |
